Measured values reported in ChEMBL document CHEMBL1138027, “Dimethoxybenzo[i]phenanthridine-12-carboxylic acid derivatives and 6H-dibenzo[c,h][2,6]naphthyridin-5-ones with potent topoisomerase I-targeting activity and cytotoxicity” (Bioorg Med Chem Lett, 2004).

Experiments:
[1] = biological target: T1, DNA topoisomerase 1 (Homo sapiens) (UniProt P11387); assay: Relative effective concentration to cleave plasmid DNA with human topoisomerase I; compared to camptothecin=1
T1 sequence (whole entry): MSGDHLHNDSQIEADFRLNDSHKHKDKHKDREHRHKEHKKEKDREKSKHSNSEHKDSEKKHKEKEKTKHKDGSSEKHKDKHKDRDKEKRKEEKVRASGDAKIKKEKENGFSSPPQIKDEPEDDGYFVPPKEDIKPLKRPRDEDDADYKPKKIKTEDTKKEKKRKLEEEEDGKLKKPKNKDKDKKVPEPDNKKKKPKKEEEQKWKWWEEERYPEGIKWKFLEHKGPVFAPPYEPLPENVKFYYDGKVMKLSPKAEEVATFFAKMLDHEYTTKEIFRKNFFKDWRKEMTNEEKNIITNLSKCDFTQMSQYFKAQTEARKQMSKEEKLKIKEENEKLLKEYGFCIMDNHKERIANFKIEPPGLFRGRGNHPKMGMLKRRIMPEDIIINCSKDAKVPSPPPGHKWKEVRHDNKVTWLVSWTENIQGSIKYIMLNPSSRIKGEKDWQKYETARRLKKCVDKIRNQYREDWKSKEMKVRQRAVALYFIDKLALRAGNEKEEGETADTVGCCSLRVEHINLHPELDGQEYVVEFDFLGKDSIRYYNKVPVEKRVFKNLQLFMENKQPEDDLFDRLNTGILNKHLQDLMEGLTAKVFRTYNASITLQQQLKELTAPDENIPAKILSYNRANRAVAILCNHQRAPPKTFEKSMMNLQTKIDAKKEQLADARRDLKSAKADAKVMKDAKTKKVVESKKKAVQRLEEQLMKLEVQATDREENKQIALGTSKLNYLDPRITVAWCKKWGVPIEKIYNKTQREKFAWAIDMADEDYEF

[2] = test system: KB 3-1; assay: Concentration required to inhibit cell proliferation in KBH5.0 tumor cell line; overexpress BCRP; type: functional, cell-based; settings: Homo sapiens
[3] = test system: RPMI 8402; assay: Concentration required to inhibit cell proliferation in CPT-K5 tumor cell line; camptothecin resistant; type: functional, cell-based; settings: Homo sapiens
[4] = test system: P388; assay: Concentration required to inhibit cell proliferation in P388 tumor cell line; type: functional, cell-based; settings: Mus musculus
[5] = test system: KB 3-1; assay: Concentration required to inhibit cell proliferation in KB3-1 tumor cell line; type: functional, cell-based; settings: Homo sapiens
[6] = Concentration required to inhibit cell proliferation in P388/CPT-45 tumor cell line; camptothecin resistant; type: functional; settings: Mus musculus, P388CPT45
[7] = test system: KB; assay: Concentration required to inhibit cell proliferation in KBV-1 tumor cell line; overexpress MDR1; type: functional, cell-based; settings: Homo sapiens
[8] = test system: RPMI 8402; assay: Concentration required to inhibit cell proliferation in […] tumor cell line; type: functional, cell-based; settings: Homo sapiens
[9] = test system: KB 3-1; assay: Concentration required to inhibit cell proliferation by 50% in KBH5.0 tumor cell line; overexpress BCRP; type: functional, cell-based; settings: Homo sapiens
[10] = test system: KB 3-1; assay: Concentration required to inhibit cell proliferation by 50% in KB3-1 tumor cell line; type: functional, cell-based; settings: Homo sapiens
[11] = Concentration required to inhibit cell proliferation by 50% in P388/CPT-45 tumor cell line; camptothecin resistant; type: functional; settings: Mus musculus, P388CPT45
[12] = test system: KB; assay: Concentration required to inhibit cell proliferation by 50% in KBV-1 tumor cell line; overexpress MDR1; type: functional, cell-based; settings: Homo sapiens

Structure (SMILES)	REC [1]	IC50 [2]	IC50 [3]	IC50 [4]	IC50 [5]	IC50 [6]	IC50 [7]	IC50 [8]	IC50 [9]	IC50 [10]	IC50 [11]	IC50 [12]
CC[C@@]1(O)C(=O)OCc2c1cc1n(c2=O)Cc2cc3c(CN(C)C)c(O)ccc3nc2-1 [TOPOTECAN]	5	440 nM	> 10000 nM	40 nM	40 nM	> 10000 nM	440 nM	20 nM				
COc1cc2c(=O)n(CCN(C)C)c3c4cc5c(cc4ncc3c2cc1OC)OCO5		6 nM	900 nM	1 nM	5 nM	230 nM	5 nM					
COc1cc2c(C(=O)OCCN(C)C)cc3c4cc5c(cc4ncc3c2cc1OC)OCO5	5		730 nM	10 nM				30 nM	70 nM	30 nM	20 nM	220 nM
CCOC(=O)c1cc2c3cc4c(cc3ncc2c2cc(OC)c(OC)cc12)OCO4	12		> 10000 nM	40 nM				80 nM	110 nM	40 nM	3250 nM	340 nM
COc1cc2c(C(=O)OCCCN(C)C)cc3c4cc5c(cc4ncc3c2cc1OC)OCO5	7		1500 nM	110 nM				220 nM	600 nM	500 nM	140 nM	2000 nM
CCN(CC)CCn1c(=O)c2c3cc4c(cc3ncc2c2cc(OC)c(OC)cc21)OCO4	0.7	5 nM	900 nM	3 nM	3 nM	30 nM	10 nM	3 nM				
COc1cc2c3cnc4cc5c(cc4c3c(=O)n(CCN3CCCCC3)c2cc1OC)OCO5	0.1	7 nM	1500 nM	3 nM	6 nM	230 nM	6 nM	1 nM				
COc1cc2c(C(=O)NCCCN(C)C)cc3c4cc5c(cc4ncc3c2cc1OC)OCO5	30		2050 nM	30 nM				50 nM	500 nM	40 nM	340 nM	4500 nM
COc1cc2c3cnc4cc5c(cc4c3c(=O)n(CCCN(C)C)c2cc1OC)OCO5	3	4 nM	200 nM	3 nM	3 nM	20 nM	7 nM	0.5 nM				
COc1cc2c3cnc4cc5c(cc4c3c(=O)n(CCN(C)C)c2cc1OC)OCO5	3		210 nM	2 nM				0.7 nM	4 nM	2 nM	200 nM	4 nM
CC[C@@]1(O)C(=O)OCc2c1cc1n(c2=O)Cc2cc3ccccc3nc2-1 [CAMPTOTHECIN]	1	20 nM	> 10000 nM	10 nM	10 nM	> 10000 nM	20 nM	6 nM				
COc1cc2c(C(=O)NCCN(C)C)cc3c4cc5c(cc4ncc3c2cc1OC)OCO5	0.5		1000 nM	2 nM				3 nM	30 nM	1 nM	260 nM	100 nM
